Source: ChEMBL document CHEMBL1909046, “DrugMatrix in vitro pharmacology data”

Columns and labels:
[1] = molecular target: 5-hydroxytryptamine receptor 6 (Homo sapiens, UniProt P50406); assay type: cell membranes, HeLa, Membrane; details: hela
[2] = molecular target: C-C chemokine receptor type 2 (Homo sapiens, UniProt P41597); assay type: cell membranes, Membrane; details: cho-k1
[3] = molecular target: T1, Cholecystokinin receptor type A (Homo sapiens, UniProt P32238); assay type: cell membranes, Membrane; details: 1321-n1
T1 sequence (P32238 whole entry): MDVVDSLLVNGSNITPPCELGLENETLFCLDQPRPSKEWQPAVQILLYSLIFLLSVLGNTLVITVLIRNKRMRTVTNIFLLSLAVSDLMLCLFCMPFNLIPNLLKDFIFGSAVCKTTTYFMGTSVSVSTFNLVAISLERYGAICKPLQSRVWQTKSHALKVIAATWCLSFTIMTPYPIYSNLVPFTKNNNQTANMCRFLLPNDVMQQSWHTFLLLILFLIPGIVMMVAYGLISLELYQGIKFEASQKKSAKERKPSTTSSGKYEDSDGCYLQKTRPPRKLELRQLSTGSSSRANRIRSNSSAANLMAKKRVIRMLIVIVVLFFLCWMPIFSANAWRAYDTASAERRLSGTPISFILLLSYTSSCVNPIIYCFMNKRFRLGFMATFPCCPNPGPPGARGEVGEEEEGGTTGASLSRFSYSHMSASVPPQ

[4] = molecular target: Prostaglandin G/H synthase 1 (Homo sapiens, UniProt P23219); assay: biochemical; assay type: tissue-based, Platelet; details: platelet;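 note: inhibition of COX-1 enzyme activity, with arachidonic acid supplied as substrate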
Sequence of Prostaglandin G/H synthase 1 (P23219 whole entry): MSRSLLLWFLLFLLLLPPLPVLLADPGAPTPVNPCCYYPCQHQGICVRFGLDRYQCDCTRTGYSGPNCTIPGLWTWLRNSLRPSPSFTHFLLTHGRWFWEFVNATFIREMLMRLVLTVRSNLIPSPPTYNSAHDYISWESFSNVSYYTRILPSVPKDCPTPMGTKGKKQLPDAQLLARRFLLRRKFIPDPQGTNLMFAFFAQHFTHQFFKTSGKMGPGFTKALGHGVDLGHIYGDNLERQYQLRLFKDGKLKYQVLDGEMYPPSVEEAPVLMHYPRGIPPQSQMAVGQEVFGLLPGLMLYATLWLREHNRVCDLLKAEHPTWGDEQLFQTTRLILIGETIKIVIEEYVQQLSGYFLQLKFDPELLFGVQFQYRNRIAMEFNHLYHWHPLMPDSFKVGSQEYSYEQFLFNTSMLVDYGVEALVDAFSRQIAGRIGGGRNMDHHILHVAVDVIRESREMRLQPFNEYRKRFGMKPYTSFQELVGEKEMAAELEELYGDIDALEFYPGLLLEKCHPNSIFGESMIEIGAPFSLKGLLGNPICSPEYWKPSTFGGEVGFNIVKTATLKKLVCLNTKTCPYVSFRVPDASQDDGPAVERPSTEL

Insulin receptor = Insulin receptor (Rattus norvegicus, UniProt P15127); assay type: cell membranes, Wistar, Liver, Membrane
Sequence of Insulin receptor (P15127 27-759 limits assumed): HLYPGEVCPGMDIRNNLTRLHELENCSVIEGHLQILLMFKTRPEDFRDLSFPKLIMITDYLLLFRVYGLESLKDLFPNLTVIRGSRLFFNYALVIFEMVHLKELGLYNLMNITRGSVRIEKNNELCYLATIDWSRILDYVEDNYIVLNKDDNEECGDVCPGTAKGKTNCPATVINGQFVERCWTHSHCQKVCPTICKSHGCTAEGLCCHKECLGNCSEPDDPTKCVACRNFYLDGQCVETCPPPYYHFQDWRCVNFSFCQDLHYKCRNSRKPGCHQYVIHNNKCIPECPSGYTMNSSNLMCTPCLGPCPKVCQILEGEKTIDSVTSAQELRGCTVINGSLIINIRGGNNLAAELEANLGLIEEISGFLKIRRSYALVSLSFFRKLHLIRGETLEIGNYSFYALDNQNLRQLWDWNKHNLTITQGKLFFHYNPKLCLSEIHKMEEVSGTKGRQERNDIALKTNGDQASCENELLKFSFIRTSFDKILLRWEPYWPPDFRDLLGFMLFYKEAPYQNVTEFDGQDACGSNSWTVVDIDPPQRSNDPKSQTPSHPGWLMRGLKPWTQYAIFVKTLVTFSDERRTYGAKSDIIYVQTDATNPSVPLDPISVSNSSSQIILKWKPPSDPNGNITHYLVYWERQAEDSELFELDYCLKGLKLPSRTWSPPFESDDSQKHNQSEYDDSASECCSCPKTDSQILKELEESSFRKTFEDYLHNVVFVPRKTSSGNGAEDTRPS
Sequence of Insulin receptor (P15127 764-1383 limits assumed): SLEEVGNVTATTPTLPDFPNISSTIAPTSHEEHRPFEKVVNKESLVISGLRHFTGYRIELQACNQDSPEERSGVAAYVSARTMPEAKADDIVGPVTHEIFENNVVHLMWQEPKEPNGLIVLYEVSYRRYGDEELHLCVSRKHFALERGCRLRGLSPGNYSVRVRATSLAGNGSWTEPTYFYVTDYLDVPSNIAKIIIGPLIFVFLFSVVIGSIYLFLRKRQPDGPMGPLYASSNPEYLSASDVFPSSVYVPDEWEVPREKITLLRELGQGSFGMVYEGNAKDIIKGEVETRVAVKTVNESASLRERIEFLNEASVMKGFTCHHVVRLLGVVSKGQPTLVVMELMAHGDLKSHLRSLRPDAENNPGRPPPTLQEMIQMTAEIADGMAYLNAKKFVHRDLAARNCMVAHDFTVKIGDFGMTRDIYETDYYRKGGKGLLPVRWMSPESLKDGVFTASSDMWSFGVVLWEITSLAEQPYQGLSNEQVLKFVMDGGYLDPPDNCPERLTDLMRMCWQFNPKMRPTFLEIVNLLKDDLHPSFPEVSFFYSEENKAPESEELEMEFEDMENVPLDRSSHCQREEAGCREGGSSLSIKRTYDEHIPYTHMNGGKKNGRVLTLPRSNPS

Neutrophil elastase = molecular target: T2, Neutrophil elastase (Homo sapiens, UniProt P08246); assay type: tissue-based;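 note: inhibition of neutrophil elastase enzyme activity, measured with a p-nitroanilide-linked peptide substrate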
T2 sequence (P08246 whole entry): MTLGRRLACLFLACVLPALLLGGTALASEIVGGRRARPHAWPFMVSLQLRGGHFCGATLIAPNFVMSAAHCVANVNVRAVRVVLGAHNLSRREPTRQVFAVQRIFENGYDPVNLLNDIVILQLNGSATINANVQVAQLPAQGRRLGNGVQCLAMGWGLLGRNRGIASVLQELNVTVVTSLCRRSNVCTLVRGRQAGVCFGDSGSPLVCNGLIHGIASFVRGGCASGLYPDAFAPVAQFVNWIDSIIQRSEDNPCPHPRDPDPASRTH

[5] = molecular target: Mitogen-activated protein kinase 14 (Homo sapiens, UniProt Q16539); design: species or system Escherichia coli;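 note: inhibition of p38alpha enzyme activity in a biochemical kinase assay, with myelin basic protein serving as substrate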
Sequence of Mitogen-activated protein kinase 14 (Q16539 whole entry): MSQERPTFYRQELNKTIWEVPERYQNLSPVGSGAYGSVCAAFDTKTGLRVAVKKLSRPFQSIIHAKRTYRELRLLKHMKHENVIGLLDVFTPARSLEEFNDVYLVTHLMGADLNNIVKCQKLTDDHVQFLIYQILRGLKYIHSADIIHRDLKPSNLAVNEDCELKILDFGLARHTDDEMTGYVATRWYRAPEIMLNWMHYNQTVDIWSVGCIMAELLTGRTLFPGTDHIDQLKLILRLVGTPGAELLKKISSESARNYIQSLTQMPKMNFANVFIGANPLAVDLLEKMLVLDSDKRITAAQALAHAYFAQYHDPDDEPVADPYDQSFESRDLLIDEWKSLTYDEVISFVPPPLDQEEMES

Glucocorticoid receptor = molecular target: T3, Glucocorticoid receptor (Homo sapiens, UniProt P04150); details: hela s3
T3 sequence (P04150 whole entry): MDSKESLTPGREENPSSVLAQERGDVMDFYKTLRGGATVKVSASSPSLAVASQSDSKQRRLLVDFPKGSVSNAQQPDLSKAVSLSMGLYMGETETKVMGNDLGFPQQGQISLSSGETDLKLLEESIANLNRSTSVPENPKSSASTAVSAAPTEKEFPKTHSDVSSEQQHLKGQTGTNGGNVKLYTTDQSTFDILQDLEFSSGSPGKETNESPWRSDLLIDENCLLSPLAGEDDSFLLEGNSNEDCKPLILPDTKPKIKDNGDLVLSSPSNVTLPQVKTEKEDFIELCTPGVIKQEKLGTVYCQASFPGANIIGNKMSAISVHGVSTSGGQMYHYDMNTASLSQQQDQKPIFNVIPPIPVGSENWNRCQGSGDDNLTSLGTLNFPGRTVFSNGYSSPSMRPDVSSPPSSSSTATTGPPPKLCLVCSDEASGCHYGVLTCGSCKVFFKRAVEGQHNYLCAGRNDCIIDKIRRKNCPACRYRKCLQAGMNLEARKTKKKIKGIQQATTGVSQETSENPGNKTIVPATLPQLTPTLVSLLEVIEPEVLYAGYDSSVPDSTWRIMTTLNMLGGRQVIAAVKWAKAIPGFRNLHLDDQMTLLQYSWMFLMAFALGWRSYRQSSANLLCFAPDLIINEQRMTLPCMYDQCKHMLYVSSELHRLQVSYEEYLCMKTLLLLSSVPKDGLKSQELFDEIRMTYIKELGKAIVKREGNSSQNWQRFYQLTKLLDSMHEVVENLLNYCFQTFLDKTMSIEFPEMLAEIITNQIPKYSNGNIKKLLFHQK
Note: in other assays of this panel Not Active means under 50% inhibition at 10 µM.

Sequence of C-C chemokine receptor type 2 (P41597 whole entry): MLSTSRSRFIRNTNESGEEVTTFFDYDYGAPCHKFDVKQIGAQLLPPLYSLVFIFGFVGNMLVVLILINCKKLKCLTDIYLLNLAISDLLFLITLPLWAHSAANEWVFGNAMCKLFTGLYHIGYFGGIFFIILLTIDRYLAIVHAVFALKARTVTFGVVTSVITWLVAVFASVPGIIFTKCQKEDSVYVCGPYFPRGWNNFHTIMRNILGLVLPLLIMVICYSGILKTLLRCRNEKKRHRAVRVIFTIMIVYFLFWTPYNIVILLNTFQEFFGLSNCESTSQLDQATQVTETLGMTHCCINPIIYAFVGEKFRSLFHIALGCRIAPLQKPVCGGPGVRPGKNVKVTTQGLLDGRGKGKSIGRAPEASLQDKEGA
Sequence of 5-hydroxytryptamine receptor 6 (P50406 whole entry): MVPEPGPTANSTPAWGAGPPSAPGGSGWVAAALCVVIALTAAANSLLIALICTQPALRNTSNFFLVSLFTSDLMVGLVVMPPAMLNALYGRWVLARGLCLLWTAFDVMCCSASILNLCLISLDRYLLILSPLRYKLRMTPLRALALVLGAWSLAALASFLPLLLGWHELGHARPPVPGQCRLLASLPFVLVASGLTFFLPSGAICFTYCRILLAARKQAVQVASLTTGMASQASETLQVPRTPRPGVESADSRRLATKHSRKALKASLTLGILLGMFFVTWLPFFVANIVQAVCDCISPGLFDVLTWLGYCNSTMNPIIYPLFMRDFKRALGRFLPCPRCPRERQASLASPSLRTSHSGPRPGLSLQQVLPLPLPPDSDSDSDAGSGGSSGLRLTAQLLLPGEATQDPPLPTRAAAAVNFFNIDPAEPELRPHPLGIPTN

CCCNC(C)C(=O)Nc1ccccc1C (stereo unspecified) [PRILOCAINE]
Not Active: IC50 [1] | IC50 [2] | IC50 [3] | IC50 [4] | IC50 (Insulin receptor) | IC50 (Neutrophil elastase) | IC50 [5] | IC50 (Glucocorticoid receptor)

CCN(CC)CCCC(C)Nc1c2ccc(Cl)cc2nc2ccc(OC)cc12 (stereo unspecified) [QUINACRINE]
Not Active: IC50 [1] | IC50 [2] | IC50 [3] | IC50 [4] | IC50 (Insulin receptor) | IC50 (Neutrophil elastase) | IC50 [5] | IC50 (Glucocorticoid receptor)

CC[C@]1(O)C[C@@H]2CN(CCc3c([nH]c4ccccc34)[C@@](C(=O)OC)(c3cc4c(cc3OC)N(C)[C@H]3[C@@](O)(C(N)=O)[C@H](O)[C@]5(CC)C=CCN6CC[C@]43[C@@H]65)C2)C1 [VINDESINE]
Not Active: IC50 [1] | IC50 [2] | IC50 [3] | IC50 [4] | IC50 (Insulin receptor) | IC50 (Neutrophil elastase) | IC50 [5] | IC50 (Glucocorticoid receptor)

COBALTOUS CHLORIDE
Not Active: IC50 [1] | Ki [1] | IC50 [2] | Ki [2] | IC50 [3] | Ki [3] | IC50 [4] | Ki [4] | IC50 (Insulin receptor) | Ki (Insulin receptor) | IC50 (Neutrophil elastase) | Ki (Neutrophil elastase) | IC50 [5] | Ki [5] | IC50 (Glucocorticoid receptor) | Ki (Glucocorticoid receptor)

COLISTIN
Not Active: IC50 [1] | Ki [1] | IC50 [2] | Ki [2] | IC50 [3] | Ki [3] | IC50 [4] | Ki [4] | IC50 (Insulin receptor) | Ki (Insulin receptor) | IC50 (Neutrophil elastase) | Ki (Neutrophil elastase) | IC50 [5] | Ki [5] | IC50 (Glucocorticoid receptor) | Ki (Glucocorticoid receptor)
